The results in this text go back to patent US20160193299A1, “MODIFIED NUCLEOSIDE, NUCLEOTIDE, AND NUCLEIC ACID COMPOSITIONS” (Moderna Therapeutics, Inc., priority 2011, published 2016).

The test system of data set [1] is Balb-C mice. The experiment in a line: Lipoplex study, whole-body flux (Table 129). In kind it is in vivo, mouse. Particulars: lipoplexed luciferase mRNA, 0.10 mg/kg. The procedure: (§1) The formulation was administered intravenously (I.V.), intramuscularly (I.M.) or subcutaneously (S.C.) to Balb-C mice at a dose of 0.10 mg/kg.
(§2) Twenty minutes prior to imaging, mice were injected intraperitoneally with a D-luciferin solution at 150 mg/kg. Animals were then anesthetized and images were acquired with an IVIS Lumina II imaging system (Perkin Elmer). Bioluminescence was measured as total flux (photons/second) of the entire mouse. The mice were imaged at 8 hours, 24 hours and 48 hours after dosing and the average total flux (photons/second) was measured for each route of administration and chemical modification. The background signal was about 3.91E+05 p/s. Organs were imaged at 6 hours and the average total flux (photons/second) was measured for the liver, spleen, lung and kidney. A control for each organ was also analyzed.

For data set [2], the system named is HeLa cells. Nature of the data set: Chemical modifications on luciferase mRNA, HeLa transfection (RLU). Format: cell-based. Particulars: 83 ng luciferase mRNA, 18 to 22 hours. As for the experimental part: The day before transfection, 20,000 HeLa cells (ATCC no. CCL-2; Manassas, Va.) were harvested by treatment with Trypsin-EDTA solution (Life Technologies, Grand Island, N.Y.) and seeded in a total volume of 100 ul EMEM medium (supplemented with 10% FCS and 1× Glutamax) per well in a 96-well cell culture plate (Corning, Manassas, Va.). The cells were grown at 37° C. in 5% CO2 atmosphere overnight. […] Lipofectamine 2000 (LifeTechnologies, Grand Island, N.Y.) was used as transfection reagent and 0.2 ul were diluted in 10 ul final volume of OPTI-MEM. After 5 minutes of incubation at room temperature, both solutions were combined and incubated an additional 15 minute at room temperature. Then the 20 ul combined solution was added to the 100 ul cell culture medium containing the HeLa cells and incubated at room temperature.
After 18 to 22 hours of incubation cells expressing luciferase were lysed with 100 ul of Passive Lysis Buffer (Promega, Madison, Wis.) according to manufacturer instructions. Aliquots of the lysates were transferred to white opaque polystyrene 96-well plates (Corning, Manassas, Va.) and combined with 100 ul complete luciferase assay solution (Promega, Madison, Wis.). […] The plate reader was a BioTek Synergy H1 (BioTek, Winooski, Vt.). The background signal of the plates without reagent was about 200 relative light units per well.

For data set [3], the system named is Balb-C mice. The experiment in a line: Intramuscular and subcutaneous administration of modified luciferase mRNA in PBS (whole-body flux). Format: in vivo, mouse. The procedure:
The mice were imaged at 2 hours, 8 hours, 24 hours, 48 hours, 72 hours, 96 hours, 120 hours and 144 hours for intramuscular delivery and 2 hours, 8 hours, 24 hours, 48 hours, 72 hours, 96 hours and 120 hours for subcutaneous delivery. Twenty minutes prior to imaging, mice were injected intraperitoneally with a D-luciferin solution at 150 mg/kg. Animals were then anesthetized and images were acquired with an IVIS Lumina II imaging system (Perkin Elmer). Bioluminescence was measured as total flux (photons/second) of the entire mouse. The average total flux (photons/second) for intramuscular administration is shown in Table 113 and the average total flux (photons/second) for subcutaneous administration is shown in Table 114. The background signal was 3.79E+05 (p/s). The peak expression for intramuscular administration was seen between 24 and 48 hours for all chemistry and expression was still detected at 144 hours.

The subject of data set [4] is liver, spleen, lung and kidney. The experiment in a line: Lipoplex study, organ flux at 6 hours (Table 130). Format: in vivo, mouse. The conditions noted are these: lipoplexed luciferase mRNA, 0.10 mg/kg. The procedure:
as §1, §2

In data set [5] the test system is human EPO. The experiment in a line: Example 48 split dose study IM, serum human EPO, product per unit drug and dose splitting factor. Format: in vivo, mice. The conditions noted are these: for Avg. pmol/mL human EPO: serum 13 h. The procedure: The dosing vehicle (F. buffer) consisted of 150 mM NaCl, 2 mM CaCl2, 2 mM Nat phosphate (1.4 mM monobasic sodium phosphate; 0.6 mM dibasic sodium phosphate), and 0.5 mM EDTA, pH 6.5. The pH was adjusted using sodium hydroxide and the final solution was filter sterilized.
Animals (n=5) were injected IM (intramuscular) for the single unit dose of 100 ug. For multi-dosing, two schedules were used, 3 doses of 100 ug and 6 doses of 100 ug. For the split dosing scheme, two schedules were used, 3 doses at 33.3 ug and 6 doses of 16.5 ug mmRNA. Control dosing involved use of buffer only at 6 doses. […] Blood and muscle tissue were evaluated 13 hrs post injection.
Human EPO protein was measured in mouse serum 13 h post I.M. single, multi- or split dosing of the EPO mmRNA in buffer. Seven groups of mice (n=5 mice per group) were treated and evaluated.
The splitting factor is defined as the product per unit drug divided by the single dose product per unit drug (PUD). For example for treatment group 2 the value 0.28 or product (EPO) per unit drug (mmRNA) is divided by the single dose product per unit drug of 0.14. The result is 2. Likewise, for treatment group 4, the value 1.1 or product (EPO) per unit drug (mmRNA) is divided by the single dose product per unit drug of 0.14. The result is 7.9. Consequently, the dose splitting factor (DSF) may be used as an indicator of the efficacy of a split dose regimen. For any single administration of a total daily dose, the DSF should be equal to 1. Therefore any DSF greater than this value in a split dose regimen is an indication of increased efficacy.

Data set [6] deals with human EPO. Nature of the data set: Example 43 multi-dose/multi-administration IM, serum human EPO. In kind it is in vivo, Sprague-Dawley rats. Particulars: rat serum 13 h post I.M. As for the experimental part: The dosing vehicle (F. buffer) was used as a control.
Animals (n=5), Sprague-Dawley rats, were injected IM (intramuscular) for the single unit dose of 100 ug (delivered to one thigh). For multi-dosing 6 doses of 100 ug (delivered to two thighs) were used for both EPO and G-CSF mmRNA. Control dosing involved use of buffer at a single dose. Human EPO blood levels were evaluated 13 hrs post injection.
Human EPO protein was measured in rat serum 13 h post I.M. Five groups of rats were treated and evaluated.

As for “5mC/pU: Luciferase mRNA SEQ ID NO: 16, polyA about 140, fully modified with 5-methylcytosine and pseudouridine”, the Flux in data set [1] (I.M., 8 hrs) is 1.90E+06 p/s; in data set [1] (I.M., 24 hrs) it was 9.33E+05 p/s; in data set [1] (I.M., 48 hrs), 8.51E+05 p/s; in data set [1] (I.V., 8 hrs, background about 3.91E+05 p/s), 5.76E+06 p/s; in data set [1] (I.V., 24 hrs), 1.02E+06 p/s; in data set [1] (I.V., 48 hrs), 4.53E+05 p/s. Moreover, the Flux in data set [1] (S.C., 8 hrs) was 2.85E+06 p/s; in data set [1] (S.C., 24 hrs), 6.66E+05 p/s; in data set [1] (S.C., 48 hrs), 3.24E+05 p/s; in data set [3] (Balb-C mice, intramuscular 2.5 mg/kg in PBS, 2 hours), 1.98E+07 p/s; in data set [3] (Balb-C mice, subcutaneous 2.5 mg/kg in PBS, 2 hours), 5.26E+06 p/s; in data set [3] (intramuscular 2.5 mg/kg, 8 hours), 1.42E+07 p/s. In addition, the Flux in data set [3] (intramuscular 2.5 mg/kg, 24 hours) amounted to 2.92E+07 p/s; in data set [3] (intramuscular 2.5 mg/kg, 48 hours) it was 2.64E+07 p/s; in data set [3] (intramuscular 2.5 mg/kg, 72 hours), 2.18E+07 p/s; in data set [3] (intramuscular 2.5 mg/kg, 96 hours), 2.75E+07 p/s; in data set [3] (intramuscular 2.5 mg/kg, 120 hours) it was 2.19E+07 p/s; in data set [3] (intramuscular 2.5 mg/kg, 144 hours) it was 9.17E+06 p/s. The Flux in data set [3] (subcutaneous 2.5 mg/kg, 8 hours) turned out to be 2.32E+06 p/s; in data set [3] (subcutaneous 2.5 mg/kg, 24 hours), 2.67E+06 p/s; in data set [3] (subcutaneous 2.5 mg/kg, 48 hours), 1.22E+06 p/s; in data set [3] (subcutaneous 2.5 mg/kg, 72 hours), 1.12E+06 p/s; in data set [3] (subcutaneous 2.5 mg/kg, 96 hours) it was 5.16E+05 p/s; in data set [3] (subcutaneous 2.5 mg/kg, 120 hours), 3.80E+05 p/s. For the same molecule, in data set [2], the RLU was 1601234 RLU. The “Inj. Site Flux” value in data set [4] (I.M.) is recorded as 1.15E+06 p/s; in data set [4] (S.C.) it was 4.46E+04 p/s. The “Kidney Flux” value in data set [4] (I.M.) is on record as 1.44E+04 p/s; in data set [4] (I.V.) it was 1.77E+04 p/s; in data set [4] (S.C.), 1.69E+04 p/s. Besides, the entries for the “Liver Flux” value in data set [4] (I.M.), in data set [4] (I.V.) and in data set [4] (S.C.) were 2.46E+04 p/s, 5.26E+05 p/s and 1.55E+04 p/s, respectively. The “Lung Flux” value was found to be 1.50E+04 p/s in data set [4] (I.M.), 4.28E+06 p/s in data set [4] (I.V.) and 1.45E+04 p/s in data set [4] (S.C.). The “Spleen Flux” value in data set [4] (I.M.) is on record as 1.38E+04 p/s; in data set [4] (I.V.), 2.04E+07 p/s; in data set [4] (S.C.), 1.67E+04 p/s.

For “Unmodified Luciferase: unmodified luciferase mRNA SEQ ID NO: 16, polyA about 140, Cap1”, the RLU in data set [2] is 33980 RLU.

B1: Human EPO mmRNA (nucleic acid, listed as Homo sapiens)
sense: GGGAAAUAAGAGAGAAAAGAAGAGUAAGAAGAAAUAUAAGAGCCACCAUGGGAGUGCACGAGUGUCCCGCGUGGUUGUGGUUGCUGCUGUCGCUCUUGAGCCUCCCACUGGGACUGCCUGUGCUGGGGGCACCACCCAGAUUGAUCUGCGACUCACGGGUACUUGAGAGGUACCUUCUUGAAGCCAAAGAAGCCGAAAACAUCACAACCGGAUGCGCCGAGCACUGCUCCCUCAAUGAGAACAUUACUGUACCGGAUACAAAGGUCAAUUUCUAUGCAUGGAAGAGAAUGGAAGUAGGACAGCAGGCCGUCGAAGUGUGGCAGGGGCUCGCGCUUUUGUCGGAGGCGGUGUUGCGGGGUCAGGCCCUCCUCGUCAACUCAUCACAGCCGUGGGAGCCCCUCCAACUUCAUGUCGAUAAAGCGGUGUCGGGGCUCCGCAGCUUGACGACGUUGCUUCGGGCUCUGGGCGCACAAAAGGAGGCUAUUUCGCCGCCUGACGCGGCCUCCGCGGCACCCCUCCGAACGAUCACCGCGGACACGUUUAGGAAGCUUUUUAGAGUGUACAGCAAUUUCCUCCGCGGAAAGCUGAAAUUGUAUACUGGUGAAGCGUGUAGGACAGGGGAUCGCUGAUAAGCUGCCUUCUGCGGGGCUUGCCUUCUGGCCAUGCCCUUCUUCUCUCCCUUGCACCUGUACCUCUUGGUCUUUGAAUAAAGCCUGAGUAGGAAG
modifications: 5' Cap1, polyA tail ~160 nt
On to B1, for which the “Dose Splitting Factor” value in data set [5] (1 × 100 ug, total 100 ug) is listed as 1; in data set [5] (3 × 33.3 ug, total 100 ug), 7.9; in data set [5] (3 × 100 ug, total 300 ug), 2; in data set [5] (6 × 16.5 ug, total 100 ug), 9.3; in data set [5] (6 × 100 ug, total 600 ug) it was 3.3. Moreover, the “Polypeptide per unit drug” value is 0.14 pmol/µg in data set [5] (1 × 100 ug, total 100 ug); 1.1 pmol/µg in data set [5] (3 × 33.3 ug, total 100 ug); 0.28 pmol/µg in data set [5] (3 × 100 ug, total 300 ug); 1.3 pmol/µg in data set [5] (6 × 16.5 ug, total 100 ug); 0.46 pmol/µg in data set [5] (6 × 100 ug, total 600 ug). The “Avg. pmol/mL human EPO” value was 14.3 pmol/mL in data set [5] (1 × 100 ug, total 100 ug); 104.7 pmol/mL in data set [5] (3 × 33.3 ug, total 100 ug); 82.5 pmol/mL in data set [5] (3 × 100 ug, total 300 ug); 127.9 pmol/mL in data set [5] (6 × 16.5 ug, total 100 ug); 273.0 pmol/mL in data set [5] (6 × 100 ug, total 600 ug). Moreover, the “Avg. human EPO” value is reported as 143 pg/mL in data set [6] (1 × 100 ug, total dose 100 ug) and 256 pg/mL in data set [6] (6 × 100 ug, total dose 600 ug).
